In patent US20240108598A1, “Danegaptide for Use in the Treatment or Prevention of a Kidney Disease” (CIANA THERAPEUTICS APS, priority 2021, published 2024):

Experiments:
Cx43 hemichannels = molecular target: T1, Cx43 hemichannels (Homo sapiens, UniProt P17302); assay: ATP biosensing (hemichannel mediated ATP release); type: cell-based; conditions: for ATP release: hPTECs
T1 construct: host or cells: HK2 human kidney proximal tubule epithelial cell line
Method: HK2 cells were cultured in low (5 mM) glucose with/without TGFβ1 (10 ng/ml)±danegaptide (50 or 100 nM) for 48 h. Representative biosensor traces show ATP release following removal of extracellular calcium. […] Peak responses were quantified by comparing against a known concentration of ATP (10 μM) and mean data±SEM plotted (E). Results are representative of 3 separate experiments (n=3; **P<0.01, […] ***P<0.001; one-way ANOVA and Tukey's post-test).
ATP biosensors (Sarissa Biomedical, Coventry UK) were used in a simultaneous dual-recording ampomeric setup as described previously (Price, G. W.; Chadjichristos, C. E.; Kavvadas, P.; Tang, S. C. W.; Yiu, W. H.; Green, C. R.; Potter, J. A.; Siamantouras, E.; Squires, P. E.; Hills, C. E. Blocking Connexin-43 mediated hemichannel activity protects against early tubular injury in experimental chronic kidney disease. Cell Commun. Signal. 2020, 18). A null biosensor was used to account for non-specific electro-active artefacts and subtracted from the ATP trace. Glycerol (2 mM) was included in all recording solutions to enable ATP detection. HK2 cells were seeded on glass coverslips (10 mm diameter) in low glucose DMEM/F12 (5 mmol/L) for 48 h, prior to an overnight serum-starvation. The cells were then incubated with TGFβ1 (10 ng/ml)±danegaptide (100 nM) for 48 h. The coverslips were transferred to a chamber containing Ca^2+-containing BSS perfused at 6 ml/min (37° C.) and left for 10 min to acclimatise. ATP and null biosensors were bent and lowered so that the electrode laid parallel to the cellular monolayer. Once a stable baseline occurred, perfusion of Ca^2+-free BSS stimulated hemichannel opening. After ATP release, Ca^2+-containing BSS was used to close hemichannels, followed by a calibration solution of ATP ([…]). Recordings were acquired at 4 Hz with a Micro CED (Mark2) interface using Spike (v8.03) software.

primary hPTECs [1] = assay: Inflammation antibody array, supernatant (Table 2); type: cell-based, human; conditions: hPTEC supernatant; TGF-β1 10 ng/mL + DG 100 nM, 48 h
From the text: An inflammation antibody array was used to assess regulation of 31 candidate inflammatory proteins in supernatant from hPTEC cells treated with TGFβ1±danegaptide. Results are representative of 3 separate experiments and presented as mean±SEM, n=3 with key significances indicated (*P<0.05, **P<0.01, ***P<0.001; one-way ANOVA and Tukey's post-test).
A proteome profiler array (Human Cytokine Array Kit from R&D Systems, Oxfordshire, UK) was used, to determine if danegaptide negates TGFβ1-induced changes in expression and secretion of key pro-inflammatory mediators. Primary hPTECs were cultured as described above and treated with TGFβ1 (10 ng/mL)±danegaptide (100 nM) for 48 h.

primary hPTECs [2] = assay: Western blotting of extracellular matrix proteins; type: cell-based, human; conditions: TGFβ1 10 ng/mL + danegaptide 100 nM, 48 h
Method: Primary hPTECs were cultured in low (5 mM) glucose±TGFβ1 (10 ng/mL)±danegaptide (100 nM) for 48 h. In panel A, expression of the ECM proteins collagen I (Col1), collagen IV (Col4), fibronectin (Fibro), and Laminin (panel B) were assessed via western blotting. […] Danegaptide partially reversed the TGFβ1 evoked change in Integrin Linked Kinase 1 (ILK1; ▴▴▴P<0.001) but had negligible effect on Matrix Metalloproteinase 3 (MMP3). All bars correspond mean±SEM, (n=3) and representative blots are shown with expression normalised by re-probing for α-tubulin as a loading control.
To determine if danegaptide can negate TGFβ1-mediated changes in adherens and tight junction proteins, hPTECs were incubated with TGFβ1 (10 ng/mL)±danegaptide (100 nM) for 48 h and expression of candidate proteins assessed by Western blotting. Preparation of cytosolic protein from HK2 and HPTEC cells, their separation by SDS-gel electrophoresis and transfer onto Immobilon-FI PVDF membranes have been described previously (Price, G. W.; Chadjichristos, C. E.; Kavvadas, P.; Tang, S. C. W.; Yiu, W. H.; Green, C. R.; Potter, J. A.; Siamantouras, E.; Squires, P. E.; Hills, C. E. Blocking Connexin-43 mediated hemichannel activity protects against early tubular injury in experimental chronic kidney disease. Cell Commun. Signal. 2020, 18). Membranes were blocked using Odyssey blocking buffer (LI-COR), then probed overnight with antibodies against E-cadherin (1:1000), N-cadherin (1:1000), claudin-2 (1:500) and ZO-1 (1:1000), Col I (1:1000), Col IV (1:2000), Fibronectin (1:4000), Laminin (1:500), ILK1 (1:500), beta-catenin (1:2000), Vimentin (1:500), MMP3 (1:500). Bands were visualised using an OdysseyFC and semi-quantified using ImageStudio (v5.2, LI-COR). Additionally, transepithelial electrical resistance (TER) was measured as a functional measure of epithelial cell-cell coupling and paracellular permeability.
To examine the effect of danegaptide on TGFβ1-evoked changes in expression of ECM proteins, hPTEC cells were cultured in low (5 mM) glucose for 48 h, serum starved overnight and treated with TGFβ1 (10 ng/mL)±danegaptide (100 nM) for 48 h. Expression of the ECM proteins collagen I, collagen IV, fibronectin, Laminin, Integrin Linked Kinase 1, and Matrix Metalloproteinase 3 were assessed via western blotting.

T1 sequence (P17302 whole entry): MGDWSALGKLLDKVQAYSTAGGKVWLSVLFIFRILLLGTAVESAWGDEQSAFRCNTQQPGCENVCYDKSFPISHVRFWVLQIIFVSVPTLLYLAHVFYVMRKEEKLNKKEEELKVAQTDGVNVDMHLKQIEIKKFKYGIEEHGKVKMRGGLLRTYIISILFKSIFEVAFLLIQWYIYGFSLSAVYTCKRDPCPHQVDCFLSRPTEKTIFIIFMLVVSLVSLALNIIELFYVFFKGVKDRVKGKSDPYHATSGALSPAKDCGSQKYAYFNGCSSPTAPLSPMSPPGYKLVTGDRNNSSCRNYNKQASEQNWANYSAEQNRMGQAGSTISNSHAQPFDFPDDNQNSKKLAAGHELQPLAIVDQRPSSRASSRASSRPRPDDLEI

## NCC(=O)N1C[C@H](NC(=O)c2ccccc2)C[C@H]1C(=O)O [danegaptide, (2S,4R)-1-(2-aminoacetyl)-4-benzamidopyrrolidine2-carboxylic acid]
Cx43 hemichannels; HK2 cells
  optimal concentration in the microenvironment (dose finding, dye uptake and ATP biosensing): 50 to 100 nM
Cx43 hemichannels; TGFβ1 10 ng/mL + danegaptide 50 nM, 48 h
  ATP release: 1.90 ± 0.26 µM
Cx43 hemichannels; TGFβ1 10 ng/mL + danegaptide 100 nM, 48 h
  ATP release: 0.79 ± 0.19 µM
Cx43 hemichannels; danegaptide alone 50 nM
  ATP release: 0.35 ± 0.10 µM
Cx43 hemichannels; danegaptide alone 100 nM
  ATP release: 0.31 ± 0.09 µM
Primary hPTECs [1]
  Angiogenin in supernatant (% compared to control): 129 ± 14.7%
  Cystatin C in supernatant (% compared to control): 88 ± 6.8%
  DPPIV in supernatant (% compared to control): 179 ± 37.8%
  ENA 78 in supernatant (% compared to control): 119 ± 3.9%
  Endoglin in supernatant (% compared to control): 94 ± 5.8%
  FGF7 in supernatant (% compared to control): 102 ± 16.5%
  Flt 3 Ligand in supernatant (% compared to control): 103 ± 12.8%
  G-CSF in supernatant (% compared to control): 117 ± 12.0%
  GM-CSF in supernatant (% compared to control): 114 ± 3.8%
  HGF in supernatant (% compared to control): 88 ± 13.7%
  ICAM-1 in supernatant (% compared to control): 124 ± 16.6%
  IFNg in supernatant (% compared to control): 90 ± 12.7%
  IGFBP-2 in supernatant (% compared to control): 90 ± 6.4%
  IGFBP-3 in supernatant (% compared to control): 84.7 ± 14.3%
  IL1A in supernatant (% compared to control): 89 ± 21.5%
  IL3 in supernatant (% compared to control): 107 ± 38.0%
  IL8 in supernatant (% compared to control): 99 ± 26.4%
  IL12 p70 in supernatant (% compared to control): 63 ± 15.9%
  IL13 in supernatant (% compared to control): 62 ± 27.2%
  Kallikrein 3 in supernatant (% compared to control): 74 ± 20.6%
  LIF in supernatant (% compared to control): 134 ± 5.4%
  MCP-1 in supernatant (% compared to control): 101 ± 6.2%
  MMP-9 in supernatant (% compared to control): 80 ± 8.9%
  PDGF-AA/BB in supernatant (% compared to control): 99 ± 6.3%
  RAGE in supernatant (% compared to control): 99 ± 12.5%
  RANTES in supernatant (% compared to control): 101 ± 12.1%
  Serpin E1 in supernatant (% compared to control): 81 ± 42.8%
  TFF3 in supernatant (% compared to control): 98 ± 17.5%
  TNF-α in supernatant (% compared to control): 139 ± 6.1%
  Thrombospondin-1 in supernatant (% compared to control): 115 ± 11.9%
  VEGF in supernatant (% compared to control): 217 ± 49.3%
Primary hPTECs [2]
  Integrin Linked Kinase 1 (ILK1) expression, compared to control: 251.8±33%
  Matrix Metalloproteinase 3 (MMP3) expression, compared to control: 147.1±12.2%
  collagen I expression, compared to control: 180.7±27.3%
  collagen IV expression, compared to control: 164.2±6.9%
  fibronectin expression, compared to control: 161.3±4%
  laminin expression, compared to control: 149±20.4%
